# Experimental data from US20250318529A1, “METHOD FOR MOSQUITO CONTROL” (SYNGENTA CROP PROTECTION AG, priority 2022, published 2025).
# What was measured:
# Experiment in all cases: CDC bottle bioassay, adult female mosquitoes
# [1] = tested on: Anopheles stephensi; type: in vivo; settings: pyrethroid Susceptible
# Description: (§1) Examples B1-B3: Bottle Assay Based on the Guideline for Evaluating Insecticide Resistance in Vectors Using the CDC Bottle Bioassay
# (§2) 1 ml of acetone containing a test compound at a defined concentration, and 1500 ppm Mero (Bayer Crop Science) was added to a 250 ml glass bottle, the bottle was placed on a rolling table to coat the inner surfaces as the solvent evaporated. Once dry, approximately twenty five non-blood fed adult female mosquitoes of the appropriate species and strains (each two or three days old) were aspirated from the stock culture and gently blown into the exposure bottle. The lid of the bottle was replaced, and the bottle placed upright out of direct sun light under standard culture conditions, nominally 28° C. and 60-80% relative humidity.
# (§3) A stopwatch was started, and the assessment of the knock-down were made after 60 minutes. A mosquito was said to be knocked down if it was unable to stand, following the CDC definition.
# (§4) After one hour the mosquitoes were carefully removed from the bottle with an aspirator and placed in a recovery cup. The mosquitoes were supplied with a 10% sucrose solution on a cotton wool bung, and stored under culture conditions. Assessments of the mortality were made after 24 and 48 hours.
# (§5) Each treatment was replicated a minimum of three times, with the mean knockdown or mortality recorded. In each study, a set of bottles was infested with a known insecticide susceptible strain of mosquitoes from the same genera as the resistant strains.
# [2] = tested on: An. gambiae KisKDR; type: in vivo, Anopheles gambiae; settings: pyrethroid Resistant
# Description: as §1, §2, §3, §4, §5
# [3] = tested on: An. gambiae M'Bé; type: in vivo, Anopheles gambiae; settings: pyrethroid Resistant
# Description: as §1, §2, §3, §4, §5
# [4] = tested on: An. gambiae Tiassale; type: in vivo, Anopheles gambiae; settings: pyrethroid Resistant
# Description: as §1, §2, §3, §4, §5
# [5] = tested on: An. gambiae Kisumu; type: in vivo, Anopheles gambiae; settings: pyrethroid Susceptible
# Description: as §1
# […] Once dry, approximately twenty five non-blood fed adult female mosquitoes of the appropriate species and strains (each two or three days old) were aspirated from the stock culture and gently blown into the exposure bottle. The lid of the bottle was replaced, and the bottle placed upright out of direct sun light under standard culture conditions, nominally 28° C. and 60-80% relative humidity.
# as §3, §4, §5
# [6] = Table B1, 25 μg/bottle + 1.5 mg Mero
# [7] = Table B1, 50 μg/bottle + 1.5 mg Mero
# [8] = Table B1, 250 μg/bottle + 1.5 mg Mero
# [9] = Table B2, 50 μg/bottle + 1.5 mg Mero
# [10] = Table B2, 250 μg/bottle + 1.5 mg Mero
# [11] = Table B3, 25 μg/bottle + 1.5 mg Mero
# [12] = Table B3, 50 μg/bottle + 1.5 mg Mero
# [13] = Table B3, 250 μg/bottle + 1.5 mg Mero
compound,measurement,setting,value
CCN1OCC(NC(=O)c2ccc(C3=NOC(c4cc(Cl)c(F)c(Cl)c4)(C(F)(F)F)C3)cc2C)C1=O (stereo not shown) [Isocycloseram],Mean % mortality 60 minutes,[1]; [6],12%
same,Mean % mortality 24 hours,[1]; [6],70.4%
same,Mean % mortality 60 minutes,[1]; [7],60.8%
same,Mean % mortality 24 hours,[1]; [7],98.4%
same,Mean % mortality 60 minutes,[1]; [8],79.2%
same,Mean % mortality 24 hours,[1]; [8],100%
same,Mean % mortality 60 minutes,[2]; [9],86.7%
same,Mean % mortality 24 hours,[2]; [9],100%
same,Mean % mortality 60 minutes,[2]; [10],100%
same,Mean % mortality 24 hours,[2]; [10],100%
same,Mean % mortality 60 minutes,[3]; [9],37.8%
same,Mean % mortality 24 hours,[3]; [9],70.3%
same,Mean % mortality 60 minutes,[3]; [10],89.3%
same,Mean % mortality 24 hours,[3]; [10],100%
same,Mean % mortality 60 minutes,[4]; [6],38.4%
same,Mean % mortality 24 hours,[4]; [6],89.6%
same,Mean % mortality 60 minutes,[4]; [7],84%
same,Mean % mortality 24 hours,[4]; [7],100%
same,Mean % mortality 60 minutes,[4]; [8],98.4%
same,Mean % mortality 24 hours,[4]; [8],100%
same,Mean % mortality 60 minutes,[4]; [11],96.9%
same,Mean % mortality 24 hours,[4]; [11],100%
same,Mean % mortality 60 minutes,[4]; [12],99.2%
same,Mean % mortality 24 hours,[4]; [12],100%
same,Mean % mortality 60 minutes,[4]; [13],99.1%
same,Mean % mortality 24 hours,[4]; [13],100%
same,Mean % mortality 60 minutes,[5]; [6],56.8%
same,Mean % mortality 24 hours,[5]; [6],89.6%
same,Mean % mortality 60 minutes,[5]; [7],88.8%
same,Mean % mortality 24 hours,[5]; [7],100%
same,Mean % mortality 60 minutes,[5]; [8],99.2%
same,Mean % mortality 24 hours,[5]; [8],100%
same,Mean % mortality 60 minutes,[5]; [9],80.77%
same,Mean % mortality 24 hours,[5]; [9],100%
same,Mean % mortality 60 minutes,[5]; [10],80.77%
same,Mean % mortality 24 hours,[5]; [10],100%
same,Mean % mortality 60 minutes,[5]; [11],98.8%
same,Mean % mortality 24 hours,[5]; [11],100%
same,Mean % mortality 60 minutes,[5]; [12],96.4%
same,Mean % mortality 24 hours,[5]; [12],100%
same,Mean % mortality 60 minutes,[5]; [13],99.2%
same,Mean % mortality 24 hours,[5]; [13],100%
"CC1(C)C(C=C(Cl)Cl)C1C(=O)OCc1cccc(Oc2ccccc2)c1 (stereo not shown) [Permethrin, reference compound]",Mean % mortality 60 minutes,"[1]; Table B1, 20 μg/bottle",100%
same,Mean % mortality 24 hours,"[1]; Table B1, 20 μg/bottle",100%
same,Mean % mortality 60 minutes,"[2]; Table B2, 20 μg/bottle",100%
same,Mean % mortality 24 hours,"[2]; Table B2, 20 μg/bottle",82.1%
same,Mean % mortality 60 minutes,"[3]; Table B2, 20 μg/bottle",12.5%
same,Mean % mortality 24 hours,"[3]; Table B2, 20 μg/bottle",13.9%
same,Mean % mortality 60 minutes,"[4]; Table B1, 20 μg/bottle",45.6%
same,Mean % mortality 24 hours,"[4]; Table B1, 20 μg/bottle",80%
same,Mean % mortality 60 minutes,"[4]; Table B3, 20 μg/bottle",99.1%
same,Mean % mortality 24 hours,"[4]; Table B3, 20 μg/bottle",91.7%
same,Mean % mortality 60 minutes,"[5]; Table B1, 20 μg/bottle",100%
same,Mean % mortality 24 hours,"[5]; Table B1, 20 μg/bottle",100%
same,Mean % mortality 60 minutes,"[5]; Table B2, 20 μg/bottle",100%
same,Mean % mortality 24 hours,"[5]; Table B2, 20 μg/bottle",100%
same,Mean % mortality 60 minutes,"[5]; Table B3, 20 μg/bottle",100%
same,Mean % mortality 24 hours,"[5]; Table B3, 20 μg/bottle",100%
